# Results taken from US20150218172A1, “Pyrrolo[2,3-D]Pyrimidine Tropomyosin-Related Kinase Inhibitors” (PFIZER LIMITED, priority 2012, published 2015).
# Target: T1, TrkA (Homo sapiens, UniProt P04629)
# T1 construct: aa 441-796; His; purchased Invitrogen PV3144
# Test: Isolated TRK enzyme assay (HTRF KinEASE-TK kit), PV3144 TrkA enzyme assay
# Format: biochemical
# Details: PV3144 TrkA enzyme assay, recombinant His-tagged cytoplasmic domain aa 441-796, 4 nM enzyme, 40 uM ATP; arithmetic mean where more than one reading; read-out: Trka enzyme (IC50)
# Summary of the method: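 HTRF KinEASE tyrosine-phosphorylation readout (665/620 nm ratio) on a 1 uM biotinylated substrate after reaction with preactivated His-tagged TrkA cytoplasmic domain plus ATP and MgCl2/DTT buffer. Compound preincubated 20 min with enzyme; IC50 from log-concentration sigmoid curve, averaged where repeated.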
# T1 sequence (P04629 441-796): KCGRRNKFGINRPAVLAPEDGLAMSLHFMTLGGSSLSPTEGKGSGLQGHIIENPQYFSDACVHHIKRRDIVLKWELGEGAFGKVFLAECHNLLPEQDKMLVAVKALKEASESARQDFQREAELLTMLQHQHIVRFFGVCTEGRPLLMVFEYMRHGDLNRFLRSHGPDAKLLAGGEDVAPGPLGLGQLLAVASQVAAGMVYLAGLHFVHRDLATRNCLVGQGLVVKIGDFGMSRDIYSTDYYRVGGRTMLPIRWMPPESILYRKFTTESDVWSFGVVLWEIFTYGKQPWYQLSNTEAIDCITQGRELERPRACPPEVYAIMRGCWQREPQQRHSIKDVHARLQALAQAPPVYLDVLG
row,Compound,IC50
1,"Cc1cc(C(F)(F)F)nn1CC(=O)Nc1ccnc(C(=O)c2cn(C(C)C)c3ncncc23)c1 [Example 69, 2-[5-methyl-3-(trifluoromethyl)-1H-pyrazol-1-yl]-N-(2-{[7-(propan-2-yl)-7H-pyrrolo[2,3-d]pyrimidin-5-yl]carbonyl}pyridin-4-yl)acetamide]",0.00554 µM
2,"O=C(Cc1ccccc1OC(F)(F)F)Nc1cc(C(=O)c2cn(CCO)c3ncncc23)ccn1 [Example 134, N-(4-{[7-(2-hydroxyethyl)-7H-pyrrolo[2,3-d]pyrimidin-5-yl]carbonyl}pyridin-2-yl)-2-[2-(trifluoromethoxy)phenyl]acetamide]",0.583 µM
3,"CC(CO)(CO)n1cc(C(=O)c2cc(NC(=O)Cc3ccc(Cl)cn3)ccn2)c2cncnc21 [Example 106, 2-(5-chloropyridin-2-yl)-N-(2-{[7-(1,3-dihydroxy-2-methylpropan-2-yl)-7H-pyrrolo[2,3-d]pyrimidin-5-yl]carbonyl}pyridin-4-yl)acetamide]",0.663 µM
4,"N-(2-{[7-(propan-2-yl)-7H-pyrrolo[2,3-d]pyrimidin-5-yl]carbonyl}pyridin-4-yl)-2-[4-(trifluoromethyl)-1H-1,2,3-triazol-1-yl]acetamide [Example 80]",0.15 µM
5,"CC(C)n1cc(C(=O)c2ccnc(NC(=O)Cc3ccc(C#N)cn3)c2)c2cncnc21 [Example 62, 2-(5-Cyanopyridin-2-yl)-N-{4-[(7-isopropyl-7H-pyrrolo[2,3-d]pyrimidin-5-yl)carbonyl}pyridin-2-yl]acetamide]",0.0343 µM
6,"CC(C)(C)n1cc(C(=O)c2cc(NC(=O)Cn3cc(C4CC4)nn3)ccn2)c2cncnc21 [Example 36, N-[2-(7-tert-Butyl-7H-pyrrolo[2,3-d]pyrimidine-5-carbonyl)-pyridin-4-yl]-2-(4-cyclopropyl-[1,2,3]triazol-1-yl)-acetamide]",0.0519 µM
7,"CC(C)(CO)n1cc(C(=O)c2ccc(C#N)c(NC(=O)Cc3ccc(Cl)cn3)c2)c2cnc(N)nc21 [Example 8, N-(5-{[2-amino-7-(1-hydroxy-2-methylpropan-2-yl)-7H-pyrrolo[2,3-d]pyrimidin-5-yl]carbonyl}-2-cyanophenyl)-2-(5-chloropyridin-2-yl)acetamide]",0.032 µM
8,"O=C(Cc1ccc(Cl)cc1)Nc1cc(C(=O)c2cn(CCO)c3ncncc23)ccn1 [Example 136, 2-(4-chlorophenyl)-N-(4-{[7-(2-hydroxyethyl)-7H-pyrrolo[2,3-d]pyrimidin-5-yl]carbonyl}pyridin-2-yl)acetamide]",0.0258 µM
9,"O=C(Cc1ccc(Cl)cc1)Nc1cc(C(=O)c2cn(C(CO)CO)c3ncncc23)ccn1 [Example 113, 2-(4-Chlorophenyl)-N-[4-({7-[2-hydroxy-1-(hydroxymethyl)ethyl]-7H-pyrrolo[2,3-d]pyrimidin-5-yl}carbonyl)pyridin-2-yl]acetamide]",0.0589 µM
10,"C[C@H](CO)n1cc(C(=O)c2cc(NC(=O)Cn3ccc(C(F)(F)F)n3)ccn2)c2cncnc21 [Example 26, N-[2-({7-[(2R)-1-hydroxypropan-2-yl]-7H-pyrrolo[2,3-d]pyrimidin-5-yl}carbonyl)pyridin-4-yl]-2-[3-(trifluoromethyl)-1H-pyrazol-1-yl]acetamide]",0.0245 µM
11,"O=C(Cc1ccc(Cl)cc1)Nc1cc(C(=O)c2cn([C@H]3CC[C@@H](O)CC3)c3ncncc23)ccn1 [Example 6, 2-(4-chlorophenyl)-N-(4-{[7-(cis-4-hydroxycyclohexyl)-7H-pyrrolo[2,3-d]pyrimidin-5-yl]carbonyl}pyridin-2-yl)acetamide]",0.0213 µM
12,"C[C@@H](CO)n1cc(C(=O)c2cc(NC(=O)Cn3ccc(C(F)(F)F)n3)ccn2)c2cncnc21 [Example 14, N-[2-({7-[(2S)-1-hydroxypropan-2-yl]-7H-pyrrolo[2,3-d]pyrimidin-5-yl}carbonyl)pyridin-4-yl]-2-[3-(trifluoromethyl)-1H-pyrazol-1-yl]acetamide]",0.131 µM

# Further lines, results first:
row,IC50,Compound
1,0.536 µM,"N#Cc1ccc(CC(=O)Nc2cc(C(=O)c3cn(C(CO)CO)c4ncncc34)ccn2)cc1 [Example 114, 2-(4-cyanophenyl)-N-(4-{[7-(1,3-dihydroxypropan-2-yl)-7H-pyrrolo[2,3-d]pyrimidin-5-yl]carbonyl}pyridin-2-yl)acetamide]"
2,0.0097 µM,"CC(C)(CO)n1cc(C(=O)c2cc(NC(=O)Cc3cccc(C(F)(F)F)c3)ccn2)c2cnc(N)nc21 [Example 49, N-(2-{[2-amino-7-(1-hydroxy-2-methylpropan-2-yl)-7H-pyrrolo[2,3-d]pyrimidin-5-yl]carbonyl}pyridin-4-yl)-2-[3-(trifluoromethyl)phenyl]acetamide]"
3,0.0595 µM,"C[C@H](CO)n1cc(C(=O)c2cc(NC(=O)Cc3ccc(C(F)(F)F)cc3)ccn2)c2cncnc21 [Example 22, N-[2-({7-[(2R)-1-hydroxypropan-2-yl]-7H-pyrrolo[2,3-d]pyrimidin-5-yl}carbonyl)pyridin-4-yl]-2-[4-(trifluoromethyl)phenyl]acetamide]"
4,0.00527 µM,"CC(C)(C)n1cc(C(=O)c2cc(NC(=O)Cc3ccc(Cl)cn3)ccn2)c2cncnc21 [Example 39, N-{2-[(7-tert-butyl-7H-pyrrolo[2,3-d]pyrimidin-5-yl)carbonyl]pyridin-4-yl}-2-(5-chloropyridin-2-yl)acetamide]"
5,0.035 µM,CC(C)n1cc(C(=O)c2cc(NC(=O)Cc3ccc(Cl)cn3)ccn2)c2cnc(N)nc21 [Example 86]
6,0.0742 µM,"CC(C)c1cn(CC(=O)Nc2ccnc(C(=O)c3cn([C@@H](C)CO)c4ncncc34)c2)nn1 [Example 29, N-[2-({7-[(2S)-1-hydroxypropan-2-yl]-7H-pyrrolo[2,3-d]pyrimidin-5-yl}carbonyl)pyridin-4-yl]-2-[4-(propan-2-yl)-1H-1,2,3-triazol-1-yl]acetamide]"
7,0.0162 µM,"Cc1cc(C(F)(F)F)nn1CC(=O)Nc1cc(C(=O)c2cn(C(C)C)c3ncncc23)ccn1 [Example 147, 2-[5-methyl-3-(trifluoromethyl)-1H-pyrazol-1-yl]-N-(4-{[7-(propan-2-yl)-7H-pyrrolo[2,3-d]pyrimidin-5-yl]carbonyl}pyridin-2-yl)acetamide]"
8,0.0289 µM,"CC(C)n1cc(C(=O)c2ccnc(NC(=O)Cc3ccc(Cl)cc3)c2)c2cncnc21 [Example 67, 2-(4-chlorophenyl)-N-(4-{[7-(propan-2-yl)-7H-pyrrolo[2,3-d]pyrimidin-5-yl]carbonyl}pyridin-2-yl)acetamide]"
9,0.0083 µM,"Cc1cc(C(F)(F)F)nn1CC(=O)Nc1ccnc(C(=O)c2cn(C(C)(C)CO)c3ncncc23)c1 [Example 60, N-(2-{[7-(1-hydroxy-2-methylpropan-2-yl)-7H-pyrrolo[2,3-d]pyrimidin-5-yl]carbonyl}pyridin-4-yl)-2-[5-methyl-3-(trifluoromethyl)-1H-pyrazol-1-yl]acetamide]"
10,0.0228 µM,"O=C(Cc1ccc(Cl)cc1)Nc1cc(C(=O)c2cn([C@H]3CC[C@H](O)CC3)c3ncncc23)ccn1 [Example 1, 2-(4-chlorophenyl)-N-(4-{[7-(trans-4-hydroxycyclohexyl)-7H-pyrrolo[2,3-d]pyrimidin-5-yl]carbonyl}pyridin-2-yl)acetamide]"
11,0.117 µM,"CC(C)n1cc(C(=O)c2ccnc(NC(=O)Cc3ccc(OC4CC4)cc3)c2)c2cncnc21 [Example 72, 2-[4-(cyclopropyloxy)phenyl]-N-(4-{[7-(propan-2-yl)-7H-pyrrolo[2,3-d]pyrimidin-5-yl]carbonyl}pyridin-2-yl)acetamide]"
